# How the values were obtained:
# [1] = tested on: high fat diet induced hyperlipidemia/NAFLD hamster model; experiment: Study A: high-fat/high-cholesterol diet induced hyperlipidemia/NAFLD hamster model, 7 weeks treatment; format: in vivo, Male Golden Syrian hamsters; conditions: for HDL-c (serum) / LDL-c (serum) / PCSK9 (serum) / TC (serum) / TG (serum) / AI value (atherosclerosis index): mean ± SEM; for AI value (atherosclerosis index): AI = (TC − HDL-c)/HDL-c
# Protocol: Various pre-clinical and clinical studies were performed to evaluate safety and efficacy of BUDCA. Primary and secondary pharmacodynamics studies were performed. Specific to nonclinical proof of concept for BUDCA in SHTG, the efficacy of BUDCA on hyperlipidemia/NAFLD was evaluated in two studies (Study A and Study B) using a high fat diet induced hyperlipidemia/NAFLD hamster model. Dietary induced changes in hamsters can be considered a valid model for dyslipidemia.
# Male Golden Syrian hamsters were fed with a high-fat/high-cholesterol diet which contained 1.25% cholesterol, 20.06% grease (2.79% soybean oil, 17.27% cocoa butter) to establish the hyperlipidemia/NAFLD model. After 2 weeks of high-fat/high-cholesterol diet inducement, 24 hamsters with fasting TC level 17.96±1.70 mmol/L were selected and divided into 3 groups of 8 hamsters each (model group G1, 50 mg/kg/day BUDCA group G2, and 200 mg/kg/day BUDCA group G3). Eight hamsters comprising the normal control were fed with a normal chow diet.
# The normal and Model control groups received vehicle (10 mL/kg 0.5% gum tragacanth solution), while the two BUDCA treatment groups received BUDCA, via intragastric administration for 7 weeks prior to sacrifice.
# During the treatment period, blood was collected at weeks 1, 3, 5, and 7, for biochemical analysis including serum TC, TG, HDL-c, LDL-c, and liver enzymes. At the end of the study, animals were sacrificed for liver macroscopic observation and liver tissues were collected for histopathological evaluations and liver lipid contents.
# [2] = tested on: high fat diet induced hyperlipidemia/NAFLD hamster model; experiment: Study B: hyperlipidemia/NAFLD hamster model, BUDCA versus UDCA or BBR-Cl, 6 weeks treatment; format: in vivo, golden hamster; conditions: for Serum lipids HDL-c / Serum lipids LDL-c / Serum lipids TC / Serum lipids TG: 6 weeks daily oral, equimolar high doses: 200 mg/kg BUDCA; for Serum lipids HDL-c / Serum lipids LDL-c / Serum lipids TC / Serum lipids TG / Liver TC / Liver TG / Proportion of oil red O staining positive area / Steatosis Score of HE staining: 107.8 mg/kg UDCA, 102.2 mg/kg BBR-Cl, mean ± SEM; for Liver TC / Liver TG / Proportion of oil red O staining positive area / Steatosis Score of HE staining: 200 mg/kg BUDCA
# Protocol: Study B was conducted using the same hamster model as described in Study A to evaluate the efficacy of BUDCA as well as to compare the effects of BUDCA with equivalent doses of either UDCA or BBR-Cl on their own. The model was induced with the same method as indicated in Study A. After the 2-week induction period, hamsters were randomized into treatment groups and continued the high fat diet for an additional 6-week period, concurrent with the daily oral administration of various doses of BUDCA (Low dose: […]; Medium dose: 100 mg/mL; […]), BBR-Cl on its own (Low dose: 51.1 mg/mL; […]), UDCA on its own (Low dose: 53.9 mg/mL; […]), or a 1:1 physical mixture of BBR-Cl and UDCA equivalent to a lower dose of BUDCA (105.0 mg/mL). A model control group continued the high fat diet and normal control group fed the standard diet were both administered the vehicle 0.5% carboxymethyl cellulose sodium (CMC-Na) solution. All animals were sacrificed for terminal evaluations at the end of the 6-week dosing period.
# Endpoints evaluated included serum lipids (TC, TG, LDL-C, HDL-C), liver lipid content (TC and TG), liver injury (ALT, AST, total bile acids (TBA) and total bilirubin (TBIL)), liver weight (expressed relative to body weight as liver index), macroscopic observation and histopathology evaluation of the livers. Histopathology endpoints included pathologist observation, as well as numerical comparison via the nonalcoholic fatty liver disease activity score (NAS) and a fibrosis severity score.
# Terminal endpoints in model control animals also confirmed increased liver weight and histopathology of the liver as evidenced by steatosis, hepatocytes swelling, punctate necrosis, inflammatory cell infiltration and local fibrosis. Therefore, the model was not only able to replicate key characteristics of the NAFLD disease spectrum in humans, but also hyperlipidemia.
# [3] = tested on: overweight or obese adults with hypercholesterolemia; experiment: Study C: Phase 1b/2a study in overweight or obese adults with hypercholesterolemia, 28 days; format: in vivo, human; conditions: BUDCA 250, 500 or 1000 mg BID, maximum reductions relative to placebo after 14 days
# Protocol: In a Phase 1b/2a study, 50 overweight or obese adults with hypercholesterolemia were enrolled and treated with BUDCA for 28 days. The primary objective was to evaluate safety and tolerability of BUDCA. Given that the subjects enrolled in this study were obese with a history of hypercholesteremia, the focus of the efficacy and PD endpoints was lipid metabolism. Key entry criteria included BMI 2 and LDL-C, BUDCA 250 mg BID (N=12), BUDCA 500 mg BID (N=12), or BUDCA 1000 mg BID (N=12).
# While all subjects had hypercholesteremia at baseline, TG levels generally ranged from normal to mild HTG (three subjects from each of placebo, BUDCA 500 mg BID, and BUDCA 1000 mg BID had TG values >200 mg/dL) and HDL-C levels were generally in the normal range.
# [4] = tested on: adults with NASH and T2DM; experiment: Study D: randomized, double-blind, placebo-controlled Phase 2 study in adults with NASH and T2DM, 18 weeks; format: in vivo, human
# Protocol: Study D was a randomized, double-blind, placebo-controlled Phase 2 study in adults with NASH and T2DM. The primary objective of this study was to evaluate the change from baseline in liver fat content as assessed by MRI-PDFF, but also evaluated changes in key cardiometabolic parameters, including lipids. Key entry criteria included the clinical diagnosis of NASH and T2DM and BMI >25.0 kg/m2. Subjects were randomized and treated with placebo (N=33), BUDCA 500 mg BID (N=33), or BUDCA 1000 mg BID (N=34) for 18 weeks (Harrison 2021).
# Demographic characteristics were generally well balanced among treatment groups. The median age overall was 57 years (range: 26 to 75 years), and there were 72% females and 28% males. Most subjects were White (91%) and not Hispanic or Latino (62%). Mean baseline weight and BMI were similar across treatment groups. On average, LDL-C was elevated and near the upper limit of the normal range and TGs were elevated above the normal. Baseline values for HbA1c, ALT, GGT, liver fat content, and cT1 were similar across treatment groups.
# Study D evaluated the effects of BUDCA on lipids as secondary efficacy endpoints. On average, subjects had near-normal LDL-C at baseline with borderline-high levels of TG. While the average values were generally similar across treatment groups, it should be noted that LDL-C was lower in the BUDCA 500 mg BID treatment group while TGs were lower in the BUDCA 1000 mg BID treatment group (Table 6). […] Reductions in TGs with the […] dose were statistically significant compared with placebo. Reduced TG levels were paralleled with a reduction in LDL-C after 18 weeks of treatment with BUDCA 1000 mg BID (−13%), but not with BUDCA 500 mg BID (3%) or with placebo (0%).
# subjects with HTG = experiment: Pooled analysis of Study C and Study D in subjects with HTG (baseline TGs above 200 mg/dL); format: in vivo, human; conditions: for placebo-corrected median percent change from baseline in TGs: end of treatment
# Protocol: Efficacy was also tested in two clinical studies that established merits for further clinical study in patients with SHTG: Study C was conducted in adults with hypercholesterolemia and […] and T2DM. A pooled analysis was conducted based on these two studies specifically evaluating the data from subjects who had HTG at baseline (TG 200 mg/dL).
# To further investigate the potential of BUDCA for lowering TGs in patients with elevated TGs, a pooled analysis across studies Study C and Study D was conducted focusing on the subjects with baseline TGs above 200 mg/dL (HTG) (Table 6). The analysis pooled the baseline and end of treatment timepoints for this evaluation as the two studies had different durations (4 weeks vs 18 weeks).
# [5] = 50 mg/kg/day BUDCA intragastric, 7 weeks
# [6] = 200 mg/kg/day BUDCA intragastric, 7 weeks
# [7] = both doses of BUDCA, HTG subgroup
smiles,measurement,setting,value
"COc1ccc2cc3[n+](cc2c1OC)CCc1cc2c(cc1-3)OCO2.C[C@H](CCC(=O)[O-])[C@H]1CC[C@H]2[C@@H]3[C@@H](O)C[C@@H]4C[C@H](O)CC[C@]4(C)[C@H]3CC[C@]12C [BUDCA, Berberine Ursodeoxycholate]",HDL-c (serum),[1]; [5],3.42 ± 0.28 mmol/L
same,LDL-c (serum),[1]; [5],2.95 ± 1.72 mmol/L
same,PCSK9 (serum),[1]; [5],124.9 ± 16.8 pg/mL
same,TC (serum),[1]; [5],9.78 ± 2.58 mmol/L
same,TG (serum),[1]; [5],3.88 ± 1.21 mmol/L
same,Liver TC,"[1]; 50 mg/kg/day BUDCA, 7 weeks",14.62 ± 4.89 mg/g
same,Liver TG,"[1]; 50 mg/kg/day BUDCA, 7 weeks",5.40 ± 2.64 mg/g
same,AI value (atherosclerosis index),"[1]; 50 mg/kg/day BUDCA, 7 weeks",1.88 ± 0.83
same,HDL-c (serum),[1]; [6],2.53 ± 0.29 mmol/L
same,LDL-c (serum),[1]; [6],1.23 ± 0.28 mmol/L
same,PCSK9 (serum),[1]; [6],179.0 ± 30.9 pg/mL
same,TC (serum),[1]; [6],4.95 ± 0.84 mmol/L
same,TG (serum),[1]; [6],1.90 ± 0.66 mmol/L
same,Liver TC,"[1]; 200 mg/kg/day BUDCA, 7 weeks",3.82 ± 1.78 mg/g
same,Liver TG,"[1]; 200 mg/kg/day BUDCA, 7 weeks",5.61 ± 1.98 mg/g
same,AI value (atherosclerosis index),"[1]; 200 mg/kg/day BUDCA, 7 weeks",0.95 ± 0.19
same,serum PCSK9 levels compared to the Model control group,"[1]; 7-weeks of BUDCA treatment, P<0.05",significantly reduced
same,"serum TG, TC, LDL-c levels, and AI compared to the model group","[1]; BUDCA 50 and 200 mg/kg/day, 7 weeks, P<0.01, dose-dependent",significantly reduced
same,liver contents of TG and TC compared to the model group,"[1]; both doses of BUDCA, 7 weeks, P<0.01",significantly decreased
same,Serum lipids HDL-c,[2],4.25 ± 0.40 mmol/L
same,Serum lipids LDL-c,[2],1.26 ± 0.15 mmol/L
same,Serum lipids TC,[2],7.03 ± 0.73 mmol/L
same,Serum lipids TG,[2],2.06 ± 0.39 mmol/L
same,Liver TC,[2]; 6 weeks,4.59 ± 0.84 mg/g
same,Liver TG,[2]; 6 weeks,3.92 ± 0.50 mg/g
same,Proportion of oil red O staining positive area,[2]; 6 weeks,1.18 ± 0.69 %
same,Steatosis Score of HE staining,[2]; 6 weeks,1.00 ± 0.38
same,"serum TC and TG, LDL-C, ALT, AST, TBA, TBIL, liver weight, liver TC and TG, NAS score, and fibrosis (score and % area)","[2]; relative to model control animals, low, medium and high dose BUDCA, 6 weeks",reduced all the following parameters in a dose dependent manner
same,"beneficial effects on most parameters, including serum lipids and liver lipid deposition, compared with the individual moieties",[2]; versus equivalent doses of UDCA or BBR administered alone,greater than those achieved with either UDCA or BBR when administered alone
same,serum lipid levels,[3],decreased in a dose-dependent fashion
same,HbA1c change from baseline,"[4]; 18 weeks of BUDCA treatment (500 and 1000 mg BID), in contrast to increase with placebo",Significant dose dependent reductions
same,"LDL-C, change from baseline to week 18","[4]; BUDCA 500 mg BID, 18 weeks",3%
same,"TG levels, change from baseline to week 18","[4]; BUDCA 500 mg BID, 18 weeks",−9%
same,mean change in fasting plasma glucose,"[4]; BUDCA 500 mg BID, 18 weeks",-18 mg/dL
same,"LDL-C, change from baseline to week 18","[4]; BUDCA 1000 mg BID, 18 weeks",−13%
same,"TG levels, change from baseline to week 18","[4]; BUDCA 1000 mg BID, 18 weeks",−11%
same,mean change in fasting plasma glucose,"[4]; BUDCA 1000 mg BID, 18 weeks",-22 mg/dL
same,change from baseline in body weight,"[4]; BUDCA 1000 mg BID, 18 weeks, p<0.05 vs placebo",-3.5 kg
same,placebo-corrected median percent change from baseline in TGs,"subjects with HTG; BUDCA 500 mg BID, 95% CI (−52.63, 17.93)",−12.3%
same,HDL-C at the end of treatment,"subjects with HTG; BUDCA 1000 mg BID, HTG population",increase in HDL-C
same,placebo-corrected median percent change from baseline in TGs,"subjects with HTG; BUDCA 1000 mg BID, 95% CI (−55.57, 16.61)",−17.7%
same,change from baseline to end of treatment in body weight,"subjects with HTG; BUDCA 1000 mg BID, subjects with HTG, based solely on one of the two studies",-4.6 kg
same,LDL-C at the end of treatment,"subjects with HTG; both doses of BUDCA (500 and 1000 mg BID), HTG population",decrease in LDL-C
same,HbA1c,subjects with HTG; [7],no worsening of HbA1c
same,fasting plasma glucose,subjects with HTG; [7],decrease in fasting plasma glucose
C[C@H](CCC(=O)O)[C@H]1CC[C@H]2[C@@H]3[C@@H](O)C[C@@H]4C[C@H](O)CC[C@]4(C)[C@H]3CC[C@]12C [UDCA],Serum lipids HDL-c,[2],4.81 ± 0.15 mmol/L
same,Serum lipids LDL-c,[2],3.83 ± 0.47 mmol/L
same,Serum lipids TC,[2],10.13 ± 0.73 mmol/L
same,Serum lipids TG,[2],2.17 ± 0.18 mmol/L
same,Liver TC,[2]; 6 weeks,17.95 ± 4.04 mg/g
same,Liver TG,[2]; 6 weeks,11.24 ± 2.69 mg/g
same,Proportion of oil red O staining positive area,[2]; 6 weeks,11.72 ± 4.65 %
same,Steatosis Score of HE staining,[2]; 6 weeks,2.13 ± 0.35
COc1ccc2cc3[n+](cc2c1OC)CCc1cc2c(cc1-3)OCO2.[Cl-] [BBR-Cl],Serum lipids HDL-c,[2],5.24 ± 0.30 mmol/L
same,Serum lipids LDL-c,[2],6.53 ± 1.10 mmol/L
same,Serum lipids TC,[2],14.86 ± 1.23 mmol/L
same,Serum lipids TG,[2],3.72 ± 0.37 mmol/L
same,Liver TC,[2]; 6 weeks,29.27 ± 4.47 mg/g
same,Liver TG,[2]; 6 weeks,19.18 ± 2.24 mg/g
same,Proportion of oil red O staining positive area,[2]; 6 weeks,18.97 ± 2.43 %
same,Steatosis Score of HE staining,[2]; 6 weeks,2.75 ± 0.16

# From patent US20260224592A1, “COMPOSITIONS AND METHODS FOR TREATING SEVERE […]” (SHENZHEN HIGHTIDE BIOPHARMACEUTICAL LTD., priority 2023, published 2026)
